Laboratory results from patent US7314644B2, “Extraction and purification method of active constituents from stem of Lonicera japonica thunb., its usage for anti-inflammatory and analgesic drug” (SK Chemicals Co., Ltd., priority 2002, dated 2008).

Experiments:
Type in all cases: in vivo
[1] = system: ICR mice; assay: Croton oil induced ear edema test
[2] = system: SD rats; assay: Toxicity test (lethal dose, symptoms, weight, autopsy)
Protocol: The active constituents of honeysuckle stem and sweroside, in the amount of 1.0 g/kg, 1.5 g/kg and 2.0 g/kg, were administered through the tail veins of SD rats (body weight: 120 to 170 g, 5 male and female rats for each administration dose, SLC, Japan), respectively, which had been fasted for 4 hours. […] An autopsy was conducted to identify presence of any abnormalities of organs.
The lethal dose of the active constituents of honeysuckle stem and sweroside was both over 5.0 g/kg for oral administration (no dead rats observed), and over 2.0 g/kg for intravenous injection (no dead rats observed).

[3] = system: ICR mice; assay: Arachidonic acid induced ear edema test
[4] = system: ICR mice; assay: Acetic acid induced writhing test

What does the source list for `C=C[C@H]1[C@H](O[C@@H]2O[C@H](CO)[C@@H](O)[C@H](O)[C@H]2O)OC=C2C(=O)OCC[C@H]21` [Sweroside, sweroside]?
Rate of Inhibition (%) ([1]; Table 8, tail vein, 0.1 mg/kg): 49.8%; Rate of Inhibition (%) ([1]; Table 8, tail vein, 1 mg/kg): 56.2%; Rate of Inhibition (%) ([1]; Table 8, tail vein, 10 mg/kg): 65.7%; Rate of Inhibition (%) ([1]; Table 9, oral administration, 1 mg/kg): 31.9%; Rate of Inhibition (%) ([1]; Table 9, oral administration, 10 mg/kg): 43.1%; Rate of Inhibition (%) ([1]; Table 9, oral administration, 100 mg/kg): 57.8%; general symptoms ([2]; 2.0 g/kg intravenously injected, restored soon): increased respiration counts and decreased activity for about 10 minutes; autopsy result ([2]; as is the case with the control groups): no abnormalities; weight change ([2]; observed for 2 weeks after administration): no change in weight; Rate of Inhibition (%) ([3]; Table 10, tail vein, 0.1 mg/kg): 48.3%; Rate of Inhibition (%) ([3]; Table 10, tail vein, 1 mg/kg): 55.1%; Rate of Inhibition (%) ([3]; Table 10, tail vein, 10 mg/kg): 69.1%; Rate of Inhibition (%) ([3]; Table 11, oral administration, 1 mg/kg): 29.0%; Rate of Inhibition (%) ([3]; Table 11, oral administration, 10 mg/kg): 34.7%; Rate of Inhibition (%) ([3]; Table 11, oral administration, 100 mg/kg): 45.7%; Rate of Inhibition (%) ([4]; Table 12, tail vein, 0.1 mg/kg): 74.6%; Rate of Inhibition (%) ([4]; Table 12, tail vein, 1 mg/kg): 86.4%; Rate of Inhibition (%) ([4]; Table 12, tail vein, 10 mg/kg): 89.7%; Rate of Inhibition (%) ([4]; Table 13, oral administration, 1 mg/kg): 65.9%; Rate of Inhibition (%) ([4]; Table 13, oral administration, 10 mg/kg): 79.1%; Rate of Inhibition (%) ([4]; Table 13, oral administration, 100 mg/kg): 87.9%
